# In ChEMBL document CHEMBL1149083, “CoMFA and CoMSIA 3D-QSAR studies on S(6)-(4-nitrobenzyl)mercaptopurine riboside (NBMPR) analogs as inhibitors of human equilibrative nucleoside transporter 1 (hENT1)” (Bioorg Med Chem Lett, 2009):
# Biological target: T1, Equilibrative nucleoside transporter 1 (Homo sapiens, UniProt Q99808)
# T1 sequence (Q99808 whole entry): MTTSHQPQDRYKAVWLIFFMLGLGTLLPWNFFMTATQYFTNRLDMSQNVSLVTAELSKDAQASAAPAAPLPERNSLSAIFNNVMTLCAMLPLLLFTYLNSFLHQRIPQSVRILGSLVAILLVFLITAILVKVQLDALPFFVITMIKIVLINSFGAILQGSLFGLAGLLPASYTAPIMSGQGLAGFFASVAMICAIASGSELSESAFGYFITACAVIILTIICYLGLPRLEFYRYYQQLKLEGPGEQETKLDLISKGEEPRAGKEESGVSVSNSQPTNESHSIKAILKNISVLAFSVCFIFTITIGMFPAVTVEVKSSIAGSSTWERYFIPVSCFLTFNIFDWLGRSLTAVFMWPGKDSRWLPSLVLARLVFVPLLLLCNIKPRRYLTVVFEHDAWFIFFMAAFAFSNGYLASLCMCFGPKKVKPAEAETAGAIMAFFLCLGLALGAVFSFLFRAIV
# Test: Inhibition of human ENT1
row,Compound,Ki [nM]
1,CC(C)(C)c1ccc(CSc2ncnc3c2ncn3[C@@H]2O[C@H](CO)[C@@H](O)[C@H]2O)cc1,10000
2,OC[C@H]1O[C@@H](n2cnc3c(SCc4ccccc4Cl)ncnc32)[C@H](O)[C@@H]1O,117
3,COC(=O)c1ccc(CSc2ncnc3c2ncn3[C@@H]2O[C@H](CO)[C@@H](O)[C@H]2O)cc1,46.8
4,Cc1ccc(CSc2ncnc3c2ncn3[C@@H]2O[C@H](CO)[C@@H](O)[C@H]2O)cc1,15.1
5,OC[C@H]1O[C@@H](n2cnc3c(SCc4ccc(Br)cc4)ncnc32)[C@H](O)[C@@H]1O,11.5
6,OC[C@H]1O[C@@H](n2cnc3c(SCc4ccc(OC(F)(F)F)cc4)ncnc32)[C@H](O)[C@@H]1O,7.08
7,OC[C@H]1O[C@@H](n2cnc3c(SCc4cccc(Cl)c4)ncnc32)[C@H](O)[C@@H]1O,18.2
8,O=[N+]([O-])c1ccccc1CSc1ncnc2c1ncn2[C@@H]1O[C@H](CO)[C@@H](O)[C@H]1O,115
9,N#Cc1ccccc1CSc1ncnc2c1ncn2[C@@H]1O[C@H](CO)[C@@H](O)[C@H]1O,38.9
10,N#Cc1cccc(CSc2ncnc3c2ncn3[C@@H]2O[C@H](CO)[C@@H](O)[C@H]2O)c1,36.3
11,OC[C@H]1O[C@@H](n2cnc3c(SCc4ccccc4Br)ncnc32)[C@H](O)[C@@H]1O,151
12,OC[C@H]1O[C@@H](n2cnc3c(SCc4cccc(Br)c4)ncnc32)[C@H](O)[C@@H]1O,20.9
13,OC[C@H]1O[C@@H](n2cnc3c(SCc4ccc(I)cc4)ncnc32)[C@H](O)[C@@H]1O,3.8
14,OC[C@H]1O[C@@H](n2cnc3c(SCc4ccccc4I)ncnc32)[C@H](O)[C@@H]1O,19.5
15,OC[C@H]1O[C@@H](n2cnc3c(SCc4cccc(F)c4)ncnc32)[C@H](O)[C@@H]1O,12.9
16,Cc1ccccc1CSc1ncnc2c1ncn2[C@@H]1O[C@H](CO)[C@@H](O)[C@H]1O,67.6
17,OC[C@H]1O[C@@H](n2cnc3c(SCc4ccc(Cl)c(Cl)c4)ncnc32)[C@H](O)[C@@H]1O,12.6
18,Cc1cccc(CSc2ncnc3c2ncn3[C@@H]2O[C@H](CO)[C@@H](O)[C@H]2O)c1,16.2
19,OC[C@H]1O[C@@H](n2cnc3c(SCc4cccc(C(F)(F)F)c4)ncnc32)[C@H](O)[C@@H]1O,19.1
20,OC[C@H]1O[C@@H](n2cnc3c(SCc4c(F)cccc4Cl)ncnc32)[C@H](O)[C@@H]1O,87.1
21,OC[C@H]1O[C@@H](n2cnc3c(SCc4ccccc4F)ncnc32)[C@H](O)[C@@H]1O,24
22,Cc1cc(C)c(CSc2ncnc3c2ncn3[C@@H]2O[C@H](CO)[C@@H](O)[C@H]2O)c(C)c1,1910
23,OC[C@H]1O[C@@H](n2cnc3c(SCc4ccc(Cl)cc4)ncnc32)[C@H](O)[C@@H]1O,14.8
24,COc1ccc(CSc2ncnc3c2ncn3[C@@H]2O[C@H](CO)[C@@H](O)[C@H]2O)cc1,34.7
25,OC[C@H]1O[C@@H](n2cnc3c(SCc4ccc(Cl)cc4Cl)ncnc32)[C@H](O)[C@@H]1O,4.37
26,O=[N+]([O-])c1cccc(CSc2ncnc3c2ncn3[C@@H]2O[C@H](CO)[C@@H](O)[C@H]2O)c1,1.78
27,N#Cc1ccc(CSc2ncnc3c2ncn3[C@@H]2O[C@H](CO)[C@@H](O)[C@H]2O)cc1,4.57
28,OC[C@H]1O[C@@H](n2cnc3c(SCc4ccccc4)ncnc32)[C@H](O)[C@@H]1O [6-BENZYLTHIOINOSINE],20
